Reference: ChEMBL document CHEMBL3046726, “Cytotoxic and genotoxic potentials of newly synthesized antiviral aminopyrazoloquinoline derivatives” (Med Chem Res, 2008)

What was measured:
MDA-MB-231 [1] = assay: Induction of apoptosis in Homo sapiens (human) MDA-MB-231 cells at 100 uM after 72 hr by flow cytometry; assay type: cell-based; conditions: mda-mb-231, 72 h
MCF-12A [2] = assay: Cell cycle arrest in Homo sapiens (human) MCF12A cells assessed as accumulation at G2/M phase at 100 uM after 72 hr by flow cytometry; assay type: ADME, cell-based
MCF7 [3] = assay: Cell cycle arrest in Homo sapiens (human) MCF7 cells assessed as accumulation at G2/M phase at 100 uM after 72 hr by flow cytometry; assay type: ADME, cell-based; conditions: mcf7, 72 h
MDA-MB-231 [4] = assay: Cell cycle arrest in Homo sapiens (human) MDA-MB-231 cells assessed as accumulation at G2/M phase at 100 uM after 72 hr by flow cytometry; assay type: ADME, cell-based; conditions: mda-mb-231, 72 h
MCF7 [5] = assay: Cytotoxicity against Homo sapiens (human) MCF7 cells at 10 uM after 72 hr; assay type: cell-based; conditions: mcf7, 72 h
MDA-MB-231 [6] = assay: Induction of apoptosis in Homo sapiens (human) MDA-MB-231 cells at 10 uM after 72 hr by flow cytometry; assay type: cell-based; conditions: mda-mb-231, 72 h
MCF-12A [7] = assay: Cytotoxicity against Homo sapiens (human) MCF12A cells at 10 uM after 72 hr; assay type: cell-based
MCF-10A [8] = assay: Induction of apoptosis in Homo sapiens (human) MCF10A cells at 100 uM after 72 hr by flow cytometry; assay type: cell-based
MDA-MB-231 [9] = assay: Cell cycle arrest in Homo sapiens (human) MDA-MB-231 cells at 10 uM after 72 hr by flow cytometry; assay type: ADME, cell-based; conditions: mda-mb-231, 72 h
MCF-10A [10] = assay: Cell cycle arrest in Homo sapiens (human) MCF10A cells assessed as accumulation at G2/M phase at 100 uM after 72 hr by flow cytometry; assay type: ADME, cell-based
MCF7 [11] = assay: Induction of apoptosis in Homo sapiens (human) MCF7 cells at 10 uM after 72 hr by flow cytometry; assay type: cell-based; conditions: mcf7, 72 h
MDA-MB-231 [12] = assay: Cytotoxicity against Homo sapiens (human) MDA-MB-231 cells at 10 uM after 72 hr; assay type: cell-based; conditions: mda-mb-231, 72 h
MCF7 [13] = assay: Induction of apoptosis in Homo sapiens (human) MCF7 cells at 100 uM after 72 hr by flow cytometry; assay type: cell-based; conditions: mcf7, 72 h
MCF-12A [14] = assay: Cell cycle arrest in Homo sapiens (human) MCF12A cells at 10 uM after 72 hr by flow cytometry; assay type: ADME, cell-based
MCF-12A [15] = assay: Induction of apoptosis in Homo sapiens (human) MCF12A cells at 10 uM after 72 hr by flow cytometry; assay type: cell-based
MCF-12A [16] = assay: Induction of apoptosis in Homo sapiens (human) MCF12A cells at 100 uM after 72 hr by flow cytometry; assay type: cell-based
MCF7 [17] = assay: Cell cycle arrest in Homo sapiens (human) MCF7 cells at 10 uM after 72 hr by flow cytometry; assay type: ADME, cell-based; conditions: mcf7, 72 h
MCF-12A [18] = assay: Cell cycle arrest in Homo sapiens (human) MCF12A cells assessed as accumulation at G2/M phase at 50 uM after 72 hr by flow cytometry; assay type: ADME, cell-based
MCF-12A [19] = assay: Induction of apoptosis in Homo sapiens (human) MCF12A cells at 50 uM after 72 hr by flow cytometry; assay type: cell-based
MDA-MB-231 [20] = assay: Cell cycle arrest in Homo sapiens (human) MDA-MB-231 cells assessed as accumulation at G2/M phase at 50 uM after 72 hr by flow cytometry; assay type: ADME, cell-based; conditions: mda-mb-231, 72 h
MCF-10A [21] = assay: Cell cycle arrest in Homo sapiens (human) MCF10A cells assessed as accumulation at G2/M phase at 50 uM after 72 hr by flow cytometry; assay type: ADME, cell-based
MCF7 [22] = assay: Induction of BP-DNA adduct formation in Homo sapiens (human) MCF7 cells at 100 uM after 24 hr by 32P-postlabeling technique relative to control; assay type: cell-based; conditions: mcf7, 24 h
MDA-MB-231 [23] = assay: Induction of apoptosis in Homo sapiens (human) MDA-MB-231 cells at 50 uM after 72 hr by flow cytometry; assay type: cell-based; conditions: mda-mb-231, 72 h
MCF-10A [24] = assay: Induction of apoptosis in Homo sapiens (human) MCF10A cells at 50 uM after 72 hr by flow cytometry; assay type: cell-based
MCF7 [25] = assay: Cell cycle arrest in Homo sapiens (human) MCF7 cells assessed as accumulation at G2/M phase at 50 uM after 72 hr by flow cytometry; assay type: ADME, cell-based; conditions: mcf7, 72 h
MCF7 [26] = assay: Induction of apoptosis in Homo sapiens (human) MCF7 cells at 50 uM after 72 hr by flow cytometry; assay type: cell-based; conditions: mcf7, 72 h
MCF7 [27] = assay: Cytotoxicity against Homo sapiens (human) MCF7 cells at 50 uM after 72 hr; assay type: cell-based; conditions: mcf7, 72 h
MCF-12A [28] = assay: Cytotoxicity against Homo sapiens (human) MCF12A cells at 100 uM after 72 hr; assay type: cell-based
MCF-12A [29] = assay: Genotoxicity in Homo sapiens (human) MCF12A cells assessed as reduction of BP-DNA adduct formation at 100 uM after 24 hr by 32P-postlabeling technique; assay type: toxicity, cell-based; design: scale not given: the % may be the effect or the level left
MDA-MB-231 [30] = assay: Genotoxicity in Homo sapiens (human) MDA-MB-231 cells assessed as reduction of BP-DNA adduct formation at 100 uM after 24 hr by 32P-postlabeling technique; assay type: toxicity, cell-based; design: scale not given: the % may be the effect or the level left; conditions: mda-mb-231, 24 h
MCF-12A [31] = assay: Cytotoxicity against Homo sapiens (human) MCF12A cells at 50 uM after 72 hr; assay type: cell-based
MCF7 [32] = assay: Cytotoxicity against Homo sapiens (human) MCF7 cells at 100 uM after 72 hr; assay type: cell-based; conditions: mcf7, 72 h
MCF-10A [33] = assay: Cytotoxicity against Homo sapiens (human) MCF10A cells at 50 uM after 72 hr; assay type: cell-based
MCF-10A [34] = assay: Cytotoxicity against Homo sapiens (human) MCF10A cells at 100 uM after 72 hr; assay type: cell-based
MDA-MB-231 [35] = assay: Cytotoxicity against Homo sapiens (human) MDA-MB-231 cells at 50 uM after 72 hr; assay type: cell-based; conditions: mda-mb-231, 72 h
MDA-MB-231 [36] = assay: Cytotoxicity against Homo sapiens (human) MDA-MB-231 cells at 100 uM after 72 hr; assay type: cell-based; conditions: mda-mb-231, 72 h

| Structure (SMILES) | Activity (MDA-MB-231 [1]) | Activity (MCF-12A [2]) | Activity (MCF7 [3]) | Activity (MDA-MB-231 [4]) | Activity (MCF7 [5]) | Activity (MDA-MB-231 [6]) | Activity (MCF-12A [7]) | Activity (MCF-10A [8]) | Activity (MDA-MB-231 [9]) | Activity (MCF-10A [10]) | Activity (MCF7 [11]) | Activity (MDA-MB-231 [12]) | Activity (MCF7 [13]) | Activity (MCF-12A [14]) | Activity (MCF-12A [15]) | Activity (MCF-12A [16]) | Activity (MCF7 [17]) | Activity (MCF-12A [18]) | Activity (MCF-12A [19]) | Activity (MDA-MB-231 [20]) | other results |
| --- | --- | --- | --- | --- | --- | --- | --- | --- | --- | --- | --- | --- | --- | --- | --- | --- | --- | --- | --- | --- | --- |
| Nc1[nH]nc2nc3ccccc3cc12 | Non-toxic | Non-toxic | Non-toxic | Non-toxic | Non-toxic | Non-toxic | Non-toxic | Toxic | Non-toxic | Non-toxic | Non-toxic | Non-toxic | Non-toxic | Non-toxic | Non-toxic | Toxic | Non-toxic |  |  |  |  |
| Cc1ccc2cc3c(N)[nH]nc3nc2c1 | Non-toxic | Non-toxic | Non-toxic | Non-toxic | Non-toxic | Non-toxic | Non-toxic | Toxic | Non-toxic | Non-toxic | Non-toxic | Non-toxic | Non-toxic | Non-toxic | Non-toxic | Toxic | Non-toxic | Non-toxic | Toxic | Non-toxic | Activity (MCF-10A [21]): Non-toxic; fold change (FC) (MCF7 [22]): 3.5; Activity (MDA-MB-231 [23]): Non-toxic; Activity (MCF-10A [24]): Toxic; Activity (MCF7 [25]): Non-toxic; Activity (MCF7 [26]): Non-toxic |
| COc1ccc2cc3c(N)n[nH]c3nc2c1 | 80% |  |  |  | Non-toxic | Non-toxic | Non-toxic |  | Non-toxic |  | Non-toxic | Non-toxic | 15% | Non-toxic | Non-toxic |  | Non-toxic | 20% | 30% | 35% | Activity (MCF7 [27]): 30%; Activity (MCF-12A [28]): 90%; Activity (MCF-10A [21]): 20%; Activity (MCF-12A [29]): 40%; fold change (FC) (MCF7 [22]): 2; Activity (MDA-MB-231 [30]): > 60%; Activity (MCF-12A [31]): 20%; Activity (MCF7 [32]): 50%; Activity (MCF-10A [33]): 20%; Activity (MCF-10A [34]): 90%; Activity (MCF-10A [24]): 5%; Activity (MDA-MB-231 [35]): 30%; Activity (MCF7 [26]): 10% |
| Nc1nc2c(ncn2COCCO)c(=O)[nH]1 [ACYCLOVIR] | Non-toxic | Non-toxic | Non-toxic | Non-toxic | Non-toxic | Non-toxic | Non-toxic | Non-toxic | Non-toxic | Non-toxic | Non-toxic | Non-toxic | Non-toxic | Non-toxic | Non-toxic | Non-toxic | Non-toxic | Non-toxic | Non-toxic | Non-toxic | Activity (MCF7 [27]): Non-toxic; Activity (MCF-12A [28]): Non-toxic; Activity (MCF-10A [21]): Non-toxic; Activity (MCF-12A [31]): Non-toxic; Activity (MCF7 [32]): Non-toxic; Activity (MDA-MB-231 [36]): Non-toxic; Activity (MCF-10A [33]): Non-toxic; Activity (MCF-10A [34]): Non-toxic; Activity (MDA-MB-231 [23]): Non-toxic; Activity (MCF-10A [24]): Non-toxic; Activity (MCF7 [25]): Non-toxic; Activity (MDA-MB-231 [35]): Non-toxic; Activity (MCF7 [26]): Non-toxic |
